Measurements as given in US20210054106A1, “OMNIPHILIC NANO-VESICLES BASED ON MODIFIED POLYSACCHARIDES FOR DELIVERY OF ACTIVE AGENTS” (THE STATE OF ISRAEL, MINISTRY OF AGRICULTURE & RURAL …, priority 2018, published 2021).

Assay: Franz diffusion cell model, RB permeation
Type: in vitro ADME
Details: sunflower oil donor, PBS pH 7.4 receptor, 32 °C, up to 16 h

- RB permeation across lipophilic membrane into aqueous phase: scarcely permeates
SMILES: CCN(CC)c1ccc2c(-c3ccccc3C(=O)O)c3ccc(=[N+](CC)CC)cc-3oc2c1.[Cl-] [RB, Rhodamine B]
